Our source for the Kd and IC50 values is patent US20120129811A1, “TRICYCLIC INHIBITORS OF PRO-MATRIX METALLOPROTEINASE ACTIVATION” (priority 2010, published 2012).

Assay [1] concerns the target T1, proMMP9(20-445;ΔFnII) (SEQ ID NO:6) (Homo sapiens, UniProt P14780, DEL216-390).
T1 construct: start methionine (N); made in house; host or cells: E. coli BL21(DE3) RIL
T1 sequence (P14780 with tags, fused parts or gaps DEL216-390): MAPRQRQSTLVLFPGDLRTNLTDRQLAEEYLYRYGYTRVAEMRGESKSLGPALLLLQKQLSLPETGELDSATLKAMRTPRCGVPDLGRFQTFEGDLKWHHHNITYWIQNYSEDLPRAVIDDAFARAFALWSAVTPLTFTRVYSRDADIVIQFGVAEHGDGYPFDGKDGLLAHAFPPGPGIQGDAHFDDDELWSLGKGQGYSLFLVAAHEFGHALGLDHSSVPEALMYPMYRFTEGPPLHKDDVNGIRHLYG
Briefly: ThermoFluor binding assay with proMMP9(20-445;ΔFnII). An outline of the steps:
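Protein thermal stability was measured with 2.8 μM proMMP9(20-445;ΔFnII) and 50 μM 1,8-ANS in 50 mM HEPES pH 7.0, 100 mM NaCl, 0.001% Tween-20, 2.5 mM MgCl2, 300 μM CaCl2, across serial compound dilutions. Samples were heated 40–90° C at 1° C/min with fluorescence read at 500 nm. Tm was fitted, and binding was derived from thermodynamic parameters obtained by DSC and ThermoFluor.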
In general terms: In DSF a fluorescence change marks the thermal transition of the protein.

In assay [2] the target is T2, proMMP9(67-444;ΔFnII) (SEQ ID NO:5) (Homo sapiens, UniProt P14780, DEL216-390).
T2 construct: start methionine (N); made in house; host or cells: E. coli BL21(DE3) RIL
T2 sequence (P14780 with tags, fused parts or gaps DEL216-390): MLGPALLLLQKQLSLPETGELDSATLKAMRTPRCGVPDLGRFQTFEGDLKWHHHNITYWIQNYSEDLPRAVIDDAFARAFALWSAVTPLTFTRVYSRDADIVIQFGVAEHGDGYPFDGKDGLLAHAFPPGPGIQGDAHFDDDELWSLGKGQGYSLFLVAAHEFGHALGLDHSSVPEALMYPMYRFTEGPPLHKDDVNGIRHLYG
Briefly: ThermoFluor binding assay with proMMP9(67-444;ΔFnII). An outline of the steps: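 Thermal shift of 3.5 μM proMMP9(67-444;ΔFnII), desalted beforehand, with 50 μM 1,8-ANS in 50 mM HEPES pH 7.0, 100 mM NaCl, 2.5 mM MgCl2, 300 μM CaCl2, 0.001% Tween-20. Heated 40–90 °C at 1 °C/min, fluorescence read at 500 nm; binding fitted from Tm shifts using DSC- and ThermoFluor-derived unfolding parameters.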

Assay [3] has as its target T3, proMMP13(1-268) (SEQ ID NO:7) (Homo sapiens, UniProt P45452).
T3 construct: 6xHis (C); made in house; host or cells: HEK293 (transient, secreted)
The assay is described as follows: ThermoFluor binding assay with proMMP13(1-268). An outline of the steps:
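Thermal shift of desalted proMMP13(1-268) at 3.5 μM final, in 50 mM HEPES pH 7.0, 100 mM NaCl, 0.001% Tween-20, 2.5 mM MgCl2, 300 μM CaCl2, with 25 μM 1,8-ANS. Serially diluted compounds heated 40–90° C. at 1° C./min, fluorescence read at 500±25 nm. Tm fitted; binding modeled using DSC-derived thermodynamic parameters.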

In assay [4] the target is T4, full-length proMMP9(1-707) activation by catalytic MMP3 (Homo sapiens, UniProt P14780, R574P).
T4 construct: made in house; host or cells: proMMP9: HEK293 (secreted); MMP3: E. coli
T4 sequence (P14780 20-707 R574P): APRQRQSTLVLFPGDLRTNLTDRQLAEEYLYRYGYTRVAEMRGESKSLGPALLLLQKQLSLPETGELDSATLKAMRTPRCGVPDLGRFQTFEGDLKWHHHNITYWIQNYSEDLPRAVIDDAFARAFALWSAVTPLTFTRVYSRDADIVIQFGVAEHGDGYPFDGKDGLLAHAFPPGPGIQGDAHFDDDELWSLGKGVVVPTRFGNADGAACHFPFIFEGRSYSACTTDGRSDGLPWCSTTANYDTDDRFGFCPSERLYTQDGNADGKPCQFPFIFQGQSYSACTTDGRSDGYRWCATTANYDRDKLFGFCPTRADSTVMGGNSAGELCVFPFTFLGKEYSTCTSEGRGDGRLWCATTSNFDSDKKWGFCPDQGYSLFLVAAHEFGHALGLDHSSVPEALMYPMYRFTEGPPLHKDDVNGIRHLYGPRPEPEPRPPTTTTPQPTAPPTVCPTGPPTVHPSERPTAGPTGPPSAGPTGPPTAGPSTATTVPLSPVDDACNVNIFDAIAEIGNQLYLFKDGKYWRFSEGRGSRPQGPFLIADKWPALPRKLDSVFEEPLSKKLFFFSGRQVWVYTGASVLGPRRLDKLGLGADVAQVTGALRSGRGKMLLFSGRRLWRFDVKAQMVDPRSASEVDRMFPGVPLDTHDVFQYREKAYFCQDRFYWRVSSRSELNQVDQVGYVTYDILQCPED
The assay is described as follows: proMMP9/MMP3 P126 Activation Assay. The format is biochemical. As to the method:
proMMP9/MMP3 P126 Activation Assay
The reaction volume was 50 μL. […] Reactivity of residual MMP3 towards P-126 substrate was minimal under these conditions.

Assay [5] concerns the target T5, proMMP13(1-268) activation by plasmin (Homo sapiens, UniProt P45452).
T5 construct: 6xHis (C); made in house; host or cells: HEK293 (proMMP13)
Briefly: ProMMP13/Plasmin P126 Activation Assay. The format is biochemical. As to the method:
ProMMP13/Plasmin P126 Activation Assay
On the day of assay, proMMP13(1-268) (SEQ ID NO:7) purified from HEK293 cells and plasmin were diluted to 160 nM and 320 nM, respectively, in assay buffer. The reaction volume was 50 μL. […] The plate was sealed and incubated for 40 min at 37° C. […] Plasmin was not reactive towards P-126 substrate under these conditions.

One may read the Kd as the free concentration of one partner at which half of the binding sites on the other are occupied at equilibrium, for simple one-to-one binding. Higher therefore signals lower affinity. A word on the IC50: it is the point on the concentration scale where inhibition reaches its midpoint. Low readings indicate higher potency, high ones lower potency.

Counter-ions that a name gives are not always drawn.

With `CC(C)Oc1ccc(C(N)=O)cc1Nc1nc2c(ccc3c2ncn3C)s1` [Example 22, 4-Isopropoxy-3-(6-methyl-6H-imidazo[4′,5′:3,4]benzo[2,1-d]thiazol-2-ylamino)-benzamide.HCl], the Kd in assay [1] amounted to 170 nM; in assay [2] it was 100 nM; in assay [3] it was 0.81 µM. Moreover, the IC50 in assay [4] was determined as 92 nM; in assay [5], 1900 nM.

With `CC(C)Oc1ccc(C(N)=O)cc1Nc1nc2c(ccc3c2cnn3C)s1` [Example 30, 4-Isopropoxy-3-(6-methyl-6H-3-thia-1,6,7-triaza-as-indacen-2-ylamino)-benzamide.HCl], the results for the Kd in assay [1], in assay [2] and in assay [3] were 120 nM, 310 nM and 0.93 µM, respectively. Further, the IC50 in assay [4] came out at 190 nM; in assay [5], 4500 nM.

On to `CCn1cnc2ccc3sc(Nc4cc(C(N)=O)ccc4OC(C)C)nc3c21` [Example 33, 3-(8-Ethyl-8H-imidazo[4′,5′:3,4]-benzo[2,1-d]thiazol-2-ylamino)-4-isopropoxy-benzamide.HCl], for which the Kd in assay [1] was 86 nM; in assay [2], 490 nM; in assay [3], 0.58 µM. The IC50 in assay [4] turned out to be 100 nM; in assay [5], 1100 nM.

In the case of `COc1cc(C(N)=O)ccc1Nc1nc2c(ccc3c2ncn3C)s1` [Example 51, 3-Methoxy-4-(6-methyl-6H-imidazo[4′,5′:3,4]benzo[2,1-d]thiazol-2-ylamino)-benzamide.HCl], the Kd in assay [1] came out at 3100 nM; in assay [2], 400 nM; in assay [3] it was 8.3 µM. In addition, the IC50 in assay [4] was 200 nM; in assay [5], over 20000 nM.

Consider `COc1ccc(F)cc1Nc1nc2c(ccc3c2ncn3C)s1` [Example 57, (5-Fluoro-2-methoxy-phenyl)-(6-methyl-6H-imidazo[4′,5′:3,4]benzo[2,1-d]thiazol-2-yl)-amine.HCl], for which the Kd came out at 230 nM in assay [1], 35 nM in assay [2] and 2.8 µM in assay [3]. Also, the IC50 is 70 nM in assay [4] and about 6000 nM in assay [5].

Regarding `Cn1cnc2c3nc(Nc4ccccc4OC(F)(F)F)sc3ccc21` [Example 58, (6-Methyl-6H-imidazo[4′,5′:3,4]-benzo[2,1-d]thiazol-2-yl)-(2-trifluoromethoxy-phenyl)-amine.HCl], the Kd is 2600 nM in assay [1], 930 nM in assay [2] and 21 µM in assay [3]. This compound also registered an IC50 in assay [4] of 380 nM.

`CC(C)Oc1ccc(F)cc1Nc1nc2c(ccc3c2ncn3C)s1` [Example 59, (5-Fluoro-2-isopropoxy-phenyl)-(6-methyl-6H-imidazo[4′,5′:3,4]-benzo[2,1-d]thiazol-2-yl)-amine.HCl]: the Kd in assay [1] came out at 2000 nM; in assay [2], 680 nM; in assay [3], 3.2 µM. Moreover, half-maximal inhibition in assay [4] (IC50) required 450 nM.

As for `CCS(=O)(=O)c1ccc(OC)c(Nc2nc3c(ccc4c3ncn4C)s2)c1` [Example 60, (5-Ethanesulfonyl-2-methoxy-phenyl)-(6-methyl-6H-imidazo[4′,5′:3,4]-benzo[2,1-d]thiazol-2-yl)-amine.HCl], the Kd in assay [1] amounted to 2800 nM; in assay [2] it was 970 nM; in assay [3] it was 1.5 µM. It took 340 nM to reach half-maximal inhibition in assay [4] (IC50).

As to `COC(=O)c1ccc(OC)c(Nc2nc3c(ccc4c3ncn4C)s2)c1` [Example 61, 4-Methoxy-3-(6-methyl-6H-imidazo[4′,5′:3,4]benzo[2,1-d]thiazol-2-ylamino)-benzoic acid methyl ester.HCl], the Kd in assay [1] is 3200 nM; in assay [2], 860 nM; in assay [3], 2.1 µM. The IC50 in assay [4] was 650 nM.

Take `CCc1ccccc1Nc1nc2c(ccc3c2ncn3C)s1` [Example 62, (2-Ethyl-phenyl)-(6-methyl-6H-imidazo[4′,5′:3,4]benzo[2,1-d]thiazol-2-yl)-amine.HCl]: the Kd in assay [1] came to 3900 nM; in assay [2] it was 1600 nM; in assay [3] it was 51 µM. Besides, half-maximal inhibition in assay [4] (IC50) required 1100 nM.

For the compound `COc1c(F)cc(F)cc1Nc1nc2c(ccc3c2ncn3C)s1` [Example 63, (3,5-Difluoro-2-methoxy-phenyl)-(6-methyl-6H-imidazo[4′,5′:3,4]benzo[2,1-d]thiazol-2-yl)-amine.HCl], the Kd is 1200 nM in assay [1], 450 nM in assay [2] and 2.3 µM in assay [3]. In addition, in assay [4], the IC50 was determined as 690 nM.

For `CC(C)Oc1ccc(C(N)=O)cc1Nc1nc2c(ccc3ccncc32)s1` [Example 89, 4-Isopropoxy-3-(thiazolo[5,4-h]isoquinolin-2-ylamino)-benzamide.TFA], the Kd is 3100 nM in assay [1], 780 nM in assay [2] and 6.8 µM in assay [3]. Further, the IC50 came to 330 nM in assay [4] and 2800 nM in assay [5].

On to `CC(C)Oc1ccc(C(N)=O)cc1Nc1nc2c(ccc3cnccc32)s1` [Example 90, 4-Isopropoxy-3-(thiazolo[4,5-f]isoquinolin-2-ylamino)-benzamide.TFA], for which the Kd in assay [1] was found to be 280 nM; in assay [2] it was 3000 nM; in assay [3], 2.7 µM. The IC50 is 200 nM in assay [4] and 2500 nM in assay [5].

On to `CC(C)Oc1ccc(C(N)=O)cc1Nc1nc2c(ccc3ncccc32)s1` [Example 91, 4-Isopropoxy-3-(thiazolo[4,5-f]quinolin-2-ylamino)-benzamide.TFA], for which the Kd in assay [1] stood at 950 nM; in assay [2] it was 2900 nM; in assay [3], 9 µM. Besides, the IC50 in assay [4] was determined as 1300 nM.

As for `COc1ccc(S(C)(=O)=O)cc1Nc1nc2c(ccc3c2cnn3C)s1` [Example 92, (5-Methanesulfonyl-2-methoxy-phenyl)-(6-methyl-6H-3-thia-1,6,7-triaza-as-indacen-2-yl)-amine.HCl], the Kd in assay [1] came to 1100 nM; in assay [2], 410 nM. For the same compound, the IC50 in assay [4] is 130 nM; in assay [5] it was about 6000 nM.

In the case of `COc1ccc(C(N)=O)cc1Nc1nc2c(ccc3c2cnn3C)s1` [Example 95, 4-Methoxy-3-(6-methyl-6H-3-thia-1,6,7-triaza-as-indacen-2-ylamino)-benzamide.HCl], the Kd in assay [1] is 190 nM; in assay [2], 360 nM. In addition, the IC50 in assay [4] was found to be 170 nM; in assay [5], 1800 nM.

Turning to `CC(C)Oc1ccc(C(N)=O)cc1Nc1nc2c(s1)CCc1cnccc1-2` [Example 115, 3-(4,5-Dihydro-thiazolo[4,5-f]isoquinolin-2-ylamino)-4-isopropoxy-benzamide.TFA], the Kd in assay [1] was found to be 3000 nM; in assay [2] it was 25000 nM; in assay [3], 14 µM. In assay [4], this compound came in with an IC50 of 1600 nM.

Take `CC(C)Oc1ccc(C(N)=O)cc1Nc1nc2c(s1)CCc1ccncc1-2` [Example 116, 3-(4,5-Dihydro-thiazolo[5,4-h]isoquinolin-2-ylamino)-4-isopropoxy-benzamide.TFA]: the Kd in assay [1] came to 1800 nM; in assay [2], 7300 nM; in assay [3], 8.7 µM. This compound came in with an IC50 in assay [4] of 980 nM.

Regarding `COc1ccc(C(N)=O)cc1Nc1nc2c(s1)CCc1ncccc1-2` [Example 117, 3-(4,5-Dihydro-thiazolo[4,5-f]quinolin-2-ylamino)-4-methoxy-benzamide], the Kd in assay [1] is 8800 nM; in assay [2], 3500 nM; in assay [3], 32 µM. The IC50 in assay [4] came to 6000 nM.
